Molecules are shown by their SMILES.

Data on 1 compound can be found in patent publication EP2431033A1, “Dronedarone for preventing cardiovascular hospitalization or mortality in patients with lone atrial fibrillation” (SANOFI, priority 2010, dated 2012).

Data set [1] has as its system patients with lone AF. The experiment in a line: Post-hoc analysis of EURIDIS, ADONIS and ATHENA trials, patients with lone AF. The note with it: for Number of patients with endpoint (lone AF): first cardiovascular hospitalization or death from any cause. The format is in vivo. The source says:
(§1) The present invention is illustrated by data from a post-hoc analysis of patients with lone atrial fibrillation enrolled in the clinical trials called EURIDIS, ADONIS and ATHENA trials with the following endpoints: • cardiovascular hospitalization or death from any cause • cardiovascular hospitalization • all cause mortality • cardiovascular mortality
(§2) Individual data from patients with lone AF enrolled in the EURIDIS, ADONIS and ATHENA trials were entered in a central database. (SAS version 8.2). The institutional review board at each site approved the study, and all patients gave written informed consent for taking part in the studies. In short, common enrolment criterion for these studies was the presence of paroxysmal or persistent AF. Patients with permanent AF or with unstable hemodynamic conditions were excluded from participation.
(§3) Lone AF was defined as AF occurring in patients without structural heart disease or arterial hypertension hypertension (not treated with blood pressure lowering medications), and without extracardiac diseases associated with AF (i.e. thyroid disorders).
(§4) In all 3 studies, patients were randomly assigned to double-blind treatment with dronedarone 400 mg BID or matching placebo. Hospitalisation was defined as at least one overnight stay. The main outcome measure of this post-hoc analysis was the time to the composite endpoint of first hospitalization for cardiovascular reasons or death from any cause, and their individual components.
(§5) Baseline parameters of patients with and without lone AF were compared with logistic regression analysis for qualitative and an ANOVA test for quantitative variables. All outcomes were estimated with the use of the Kaplan-Meier method and compared by means of the log-rank test. […] All P values are two-tailed, and statistical significance was assumed at a p-value of 0.05 or smaller.
(§6) The results obtained in this trial were analysed by the Kaplan Meier method for the figures, and the relative risk (RR) was estimated using Cox's proportional-effect regression model.
(§7) The relative risk (RR) is the ratio of the rates of occurrence of a hospitalization or of a death among the patients on dronedarone, relative to the patients on placebo.

Data set [2] deals with patients without lone AF. The experiment in a line: Post-hoc analysis of EURIDIS, ADONIS and ATHENA trials, patients without lone AF. It counts as in vivo.
Excerpt: as §1, §2, §3, §4, §5, §6, §7

Where [3] appears, read: first cardiovascular hospitalization, patients with lone AF at baseline, 400mg BID.
Where [4] appears, read: patients with lone AF, compared to placebo, x = 1-relative risk.
[5] abbreviates: first cardiovascular hospitalization, patients without lone AF at baseline, 400mg BID.

`CCCCc1oc2ccc(NS(C)(=O)=O)cc2c1C(=O)c1ccc(OCCCN(CCCC)CCCC)cc1` [Dronedarone, 2-n-Butyl-3-[4-(3-di-n-butylaminopropoxy)benzoyl]-5-methylsulphonamidobenzofuran]: the “Number of patients with endpoint (lone AF)” value is given as 1 (N=64) in data set [1] (ADONIS, 400mg BID, N=64); 26 (N=95) in data set [1] (ATHENA, 400mg BID, N=95); 7 (N=81) in data set [1] (EURIDIS, 400mg BID, N=81); 34 (N=240) in data set [1] (Lone AF population (3 studies pooled), 400mg BID, N=240). Besides, the results for the “Cumulative incidence of events at 1 year” value in data set [1] (setting [3]) and in data set [2] (setting [5]) were 0.113 and 0.208, respectively. The results for the “Cumulative incidence of events at 2 years” value in data set [1] (setting [3]) and in data set [2] (setting [5]) were 0.195 and 0.321, respectively. For the same compound, the results for the “Cumulative incidence of events at 6 months” value in data set [1] (setting [3]) and in data set [2] (setting [5]) were 0.057 and 0.135, respectively. The Relative risk worked out at 0.543 in data set [1] (first cardiovascular hospitalization, patients with lone AF at baseline, vs placebo, cause-specific Cox regression model adjusted on studies) and 0.758 in data set [2] (first cardiovascular hospitalization, patients without lone AF at baseline, vs placebo, cause-specific Cox regression model adjusted on studies). The “risks for adverse events between placebo and dronedarone” value in data set [1] (independent from the AF type) is “No difference”. The “cardiovascular hospitalisations for AF or other supraventricular arrhythmias” value in data set [1] (lone AF, dronedarone group, out of all cardiovascular hospitalisations) is 16 of 30. In data set [1] (lone AF, dronedarone vs placebo, 95%CI=0.31-3.43, p=0.885), the “All-cause mortality (HR)” value was 1.02. Further, the “cardiovascular hospitalizations alone, HR” value in data set [1] (patients with lone AF, compared to placebo, 95%CI=0.34-0.87, p=0.004) was determined as 0.54. Also, the “cardiovascular hospitalizations or death, hazard ratio (HR)” value in data set [1] (patients with lone AF, compared to placebo, 95%CI=0.36-0.88, p=0.004) was 0.56. The “reduction in cardiovascular hospitalizations alone” value in data set [1] (setting [4]) was 46%. Further, the “reduction of cardiovascular hospitalizations or death” value in data set [1] (setting [4]) came to 44%. Besides, the drug discontinuation rate entry in data set [1] (patients with lone AF, dronedarone arm vs placebo arm) was “similar”. Besides, the “reduction of the risk of CV hospitalizations or death” value in data set [2] (patients with other forms of AF) is 23%. Besides, the drug discontinuation result in data set [2] (patients with other forms of AF, dronedarone arm vs placebo arm) is “more often”.
